From patent US20240425512A1, “NITROGEN-CONTAINING HETEROCYCLIC COMPOUND, PHARMACEUTICAL COMPOSITION THEREOF AND APPLICATION THEREOF” (280 Bio, Inc., priority 2023, published 2024) come the findings set out here.

Where two headings read alike, the source gives them in different places.

Assay [1] has as its system LS513 colon cancer cell with KRAS G12D mutation. Put plainly: Proliferation inhibition on RAS cell lines measured by CTG, LS513. The format is cell-based. The conditions noted are these: LS513 cells, incubated for 6 days, CellTiter Glo. From the text:
NCI-H358 is a human non-small cell lung cancer cell line with KRAS G12C mutation; AGS is a gastric cancer cell line with KRAS G12D mutation; SW620 is a colon cancer cell with KRAS G12V mutation; NCI-H460 is a non-small cell lung cancer cell with KRAS Q61H mutation; MKN1 is a wild-type gastric cancer cell with KRAS-amplified; LS513 is a colon cancer cell with KRAS G12D mutation; LoVo is a colon cancer cell with KRAS G13D mutation; NCI-H441 is a lung cancer cell with KRAS G12V mutation, and Capan-2 is a pancreatic cancer cell with KRAS G12V mutation.
(§1) The proliferation inhibitory effect of the compounds on various mutations was evaluated by determining the proliferation inhibitory activity of the compounds on these cell lines.
(§2) The assay was conducted on either 384-well plates or 96-well plates. The procedures are as follows:
(§3) The cell suspensions were added to 384- or 96-well plates (384-well plate: 50 μL; 96-well plate: 100 μL) except for peripheral wells. The plates were placed in a carbon dioxide incubator overnight. NCI-H358, AGS, NCI-H460, MKN-1, LS513, LoVo, and NCI-H441 were placed in a 5%, 370 carbon dioxide incubator overnight, and SW620 was placed in a 0%, 370 carbon dioxide incubator overnight. The HPD300 micro-dosing instrument was used to add the corresponding concentration of compound to each well (9-10 concentration gradients of compound were obtained by 3-fold dilution). Cell plates were incubated in a carbon dioxide incubator for 5-6 days. NCI-H358, AGS, NCI-H460 and MKN-1 were incubated at 5%, 37° incubator and SW620 was incubated at 0%, 370 incubator. On the day of plate measurement, the 384- or 96-well plates were first equilibrated at room temperature for 10-30 min, then CellTiter Glo reagent (384-well plate: 25 μL; 96-well plate: 100 μL) was added to the 384- or 96-well plate, shaken for 10 min away from light, and incubated for 10 min. The plates were placed into Victor NIVO or ENVIDION reader plates, and XLFit was utilized to plot the pharmacodynamic inhibition curve and calculate the IC50 value. “IC50>10 μM” is denoted by “*”, “10 μM≥IC50≥1 μM” is denoted by “**”, and “1 μM≥IC50>100 nM” is denoted by “***”, “IC50<100 nM” is denoted by “****”
Background: In ATP-based viability assays light output follows the ATP content of the culture.

A further assay deals with GP2D cells. Put plainly: Proliferation inhibition on RAS cell lines measured by CTG, GP2D. Format: cell-based. The conditions noted are these: CellTiter Glo. On the procedure: as §1, §2, §3
[2] abbreviates: Homo sapiens, LS-513, 144 h, Table 2, read-out: IC50 (LS513^f).
The mark [3] stands for this setting: 144 h, Table 2, incubated for 6 days, read-out: IC50 (GP2D^j).
The mark [4] stands for this setting: Homo sapiens, LS-513, 144 h, Table 3, read-out: IC50 (LS513^k).
Where [5] appears, read: 144 h, Table 3, incubated for 6 days, read-out: IC50 (GP2D^l).
The mark [6] stands for this setting: Table 3, read-out: IC50 (LS513^k).
[7] abbreviates: Table 3, incubated for 6 days, read-out: IC50 (GP2D^l).

As a reminder, the IC50 is the point on the concentration scale where inhibition reaches its midpoint. Turning to `C#Cc1c(F)ccc2cc(O)cc(-c3ncc4c(N5CCCCCN5)nc(OCC56CCCN5C(COc5cc(C(F)(F)F)cnn5)CC6)nc4c3F)c12` (stereo not drawn) [Compound 58], the IC50 (in assay [1] (setting [2]); in the assay with GP2D cells (setting [3])) was below 100 nM in each case. For `C#Cc1c(F)ccc2cc(O)cc(-c3ncc4c(N5CCCCCN5)nc(OCC56CCCN5C(COc5cc(C(F)(F)F)ncn5)CC6)nc4c3F)c12` (stereo not drawn) [Compound 60], the half-inhibitory concentration (IC50) (in assay [1] (setting [2]); in the assay on GP2D cells (setting [3])) was below 100 nM throughout.

Consider `C#Cc1c(F)ccc2c(F)c(O)cc(-c3ncc4c(N5CCCCCN5)nc(OC[C@@]56CCCN5C[C@H](F)C6)nc4c3F)c12` [Compound 64], for which the IC50 (in assay [1] (setting [2]); in the assay with GP2D cells (setting [3])) was below 100 nM throughout. For the compound `C#Cc1c(F)ccc2cc(O)cc(-c3ncc4c(N5CCCCCN5C(=O)C(F)(F)F)nc(OC[C@@]56CCCN5C[C@H](F)C6)nc4c3F)c12` [Compound 68], the IC50 (in assay [1] (setting [2]); in the assay with GP2D cells (setting [3])) was below 100 nM in each case. In the case of `C#Cc1c(F)ccc2cc(OC(=O)NCCCCCCCC)cc(-c3ncc4c(N5CCCCCN5)nc(OC[C@@]56CCCN5C[C@H](F)C6)nc4c3F)c12` [Compound 69], the IC50 (in assay [1] (setting [2]); with GP2D cells (setting [3])) was below 100 nM in each case. Regarding `C#Cc1c(F)ccc2cc(O)cc(-c3ncc4c(N5CCCCCN5)nc(OC[C@@H]5CCCN5C)nc4c3F)c12` [Compound 72], the IC50 (in assay [1] (setting [2]); with GP2D cells (setting [3])) was below 100 nM in each case. On to `C#Cc1c(F)ccc2cc(OC(=O)N3CCC(N4CCCCC4)CC3)cc(-c3ncc4c(N5CCCCCN5)nc(OC[C@@]56CCCN5C[C@H](F)C6)nc4c3F)c12` [Compound 73], for which the IC50 (in assay [1] (setting [4]); in the assay on GP2D cells (setting [5])) was 100 to 1000 nM throughout.

Consider `C#Cc1c(F)ccc2cc(OC(=O)N3CCC[C@H]3COC)cc(-c3ncc4c(N5CCCCCN5)nc(OC[C@@]56CCCN5C[C@H](F)C6)nc4c3F)c12` [Compound 74], for which the IC50 (in assay [1] (setting [4]); in the assay with GP2D cells (setting [5])) was below 100 nM in each case.

`Nc1cc(Cl)c(C(F)(F)F)c(-c2ncc3c(N4CCCCCN4)nc(OC[C@@]45CCCN4C[C@H](F)C5)nc3c2F)c1` [Compound 81]: the results for the half-inhibitory concentration (IC50) (in assay [1] (setting [2]); in the assay on GP2D cells (setting [3])) were below 100 nM and 100 to 1000 nM, respectively. On the same counts, the results for `[2H]C([2H])(Oc1nc(N2CCCCCN2)c2cnc(-c3cc(O)cc4ccc(F)c(C#C)c34)c(F)c2n1)[C@@]12CCCN1C[C@H](F)C2` [Compound 82] are below 100 nM and below 100 nM. For `C#Cc1c(F)ccc2cc(O)cc(-c3ncc4c(N5CCCCCN5)nc(OC[C@]56CCCN5[C@H](c5cc(F)c(F)c(F)c5)CC6)nc4c3F)c12` [Compound 85] the same measures were 100 to 1000 nM and 100 to 1000 nM. `C#Cc1c(F)ccc2cc(OC(=O)N3CCOCC3)cc(-c3ncc4c(N5CCCCCN5)nc(OC[C@@]56CCCN5C[C@H](F)C6)nc4c3F)c12` [Compound 90]: the IC50 (in assay [1] (setting [4]); in the assay on GP2D cells (setting [5])) was below 100 nM each time. As to `C#Cc1c(F)ccc2cc(OC(=O)NCCOCCOC)cc(-c3ncc4c(N5CCCCCN5)nc(OC[C@@]56CCCN5C[C@H](F)C6)nc4c3F)c12` [Compound 92], the half-maximal inhibitory concentration (IC50) (in assay [1] (setting [4]); in the assay with GP2D cells (setting [5])) was below 100 nM throughout. In the case of `C#Cc1c(F)ccc2cc(OC(=O)NCCOC)cc(-c3ncc4c(N5CCCCCN5)nc(OC[C@@]56CCCN5C[C@H](F)C6)nc4c3F)c12` [Compound 93], the IC50 (in assay [1] (setting [4]); with GP2D cells (setting [5])) was below 100 nM in each case. Regarding `C#Cc1c(F)ccc2cc(OC(=O)NCCCC)cc(-c3ncc4c(N5CCCCCN5)nc(OC[C@@]56CCCN5C[C@H](F)C6)nc4c3F)c12` [Compound 94], the IC50 (in assay [1] (setting [4]); in the assay on GP2D cells (setting [5])) was below 100 nM in each case.

As for `C#Cc1c(F)ccc2cc(OC(=O)[C@@H](NC(=O)OC(C)(C)C)C(C)C)cc(-c3ncc4c(N5CCCCCN5)nc(OC[C@@]56CCCN5C[C@H](F)C6)nc4c3F)c12` [Compound 95], the IC50 (in assay [1] (setting [6]); in the assay on GP2D cells (setting [7])) was below 100 nM throughout. Turning to `C#Cc1c(F)ccc2cc(OC(=O)N[C@H](C(=O)O)[C@@H](C)CC)cc(-c3ncc4c(N5CCCCCN5)nc(OC[C@@]56CCCN5C[C@H](F)C6)nc4c3F)c12` [Compound 96], the IC50 (in assay [1] (setting [6]); in the assay on GP2D cells (setting [7])) was below 100 nM in each case. For the compound `C#Cc1c(F)ccc2cc(OC(=O)N(CCOC)CCOC)cc(-c3ncc4c(N5CCCCCN5)nc(OC[C@@]56CCCN5C[C@H](F)C6)nc4c3F)c12` [Compound 98], the IC50 (in assay [1] (setting [4]); in the assay on GP2D cells (setting [5])) was below 100 nM in each case. As to `C#Cc1c(F)ccc2cc(OC(=O)N3CCCCC3)cc(-c3ncc4c(N5CCCCCN5)nc(OC[C@@]56CCCN5C[C@H](F)C6)nc4c3F)c12` [Compound 99], the IC50 (in assay [1] (setting [4]); in the assay on GP2D cells (setting [5])) was below 100 nM each time. Take `C#Cc1c(F)ccc2cc(OC(=O)NCCCCCCCCCCCCCCCC)cc(-c3ncc4c(N5CCCCCN5)nc(OC[C@@]56CCCN5C[C@H](F)C6)nc4c3F)c12` [Compound 101]: the half-maximal inhibitory concentration (IC50) (in assay [1] (setting [4]); in the assay with GP2D cells (setting [5])) was below 100 nM each time. For `C#Cc1c(F)ccc2cc(OC(=O)COCCOCCOCCOC)cc(-c3ncc4c(N5CCCCCN5)nc(OC[C@@]56CCCN5C[C@H](F)C6)nc4c3F)c12` [Compound 102], the IC50 (in assay [1] (setting [6]); in the assay on GP2D cells (setting [7])) was below 100 nM throughout. For `C#Cc1c(F)ccc2cc(O)cc(-c3ncc4c(N5CCCCCN5)nc(OC[C@@]56CC[C@H](c7cc(F)c(F)c(F)c7)N5C[C@H](F)C6)nc4c3F)c12` [Compound 103], the IC50 (in assay [1] (setting [6]); with GP2D cells (setting [7])) was below 100 nM each time. On to `C#Cc1c(F)ccc2cc(O)cc(-c3ncc4c(N5CCCCCN5)nc(OCC5(CN6CCC(=CF)CC6)CC5)nc4c3F)c12` [Compound 106], for which the concentration for half-maximal inhibition (IC50) (in assay [1] (setting [4]); in the assay on GP2D cells (setting [5])) was below 100 nM throughout. For the compound `C#Cc1c(F)ccc2cc(O)cc(-c3ncc4c(N5CCCCCN5)nc(OCC5(CN6CCC(OCC(=O)N[C@H](C(=O)N7C[C@H](O)C[C@H]7C(=O)N[C@@H](C)c7ccc(-c8scnc8C)cc7)C(C)(C)C)CC6)CC5)nc4c3F)c12` [Compound 108], the concentration for half-maximal inhibition (IC50) with GP2D cells (setting [7]) was below 100 nM. On to `C#Cc1c(F)ccc2cc(OC(=O)N3CCCC3)cc(-c3ncc4c(N5CCCCCN5)nc(OC[C@@]56CCCN5C[C@H](F)C6)nc4c3F)c12` [Compound 111], for which the concentration for half-maximal inhibition (IC50) with GP2D cells (setting [5]) was below 100 nM.

For the compound `C#Cc1c(F)ccc2cc(O)cc(-c3ncc4c(N5CCCCCN5)nc(OC[C@@]56CC[C@H](c7cc(F)c(C(F)(F)F)c(F)c7)N5C[C@H](F)C6)nc4c3F)c12` [Compound 117], the half-maximal inhibitory concentration (IC50) (in assay [1] (setting [4]); in the assay on GP2D cells (setting [5])) was 100 to 1000 nM each time. `C#Cc1c(F)ccc2cc(O)cc(-c3ncc4c(N5CCCCCN5)nc(OC[C@@]56CC[C@H](c7ccc(C(F)(F)F)c(F)c7)N5C[C@H](F)C6)nc4c3F)c12` [Compound 118]: the half-maximal inhibitory concentration (IC50) (in assay [1] (setting [4]); in the assay on GP2D cells (setting [5])) was 100 to 1000 nM throughout.

In the case of `C#Cc1c(F)ccc2cc(O)cc(-c3ncc4c(N5CCCCCN5)nc(OC[C@@]56CC[C@H](c7ccc(OC(F)(F)F)cc7)N5C[C@H](F)C6)nc4c3F)c12` [Compound 121], the 50% inhibitory concentration (IC50) (in assay [1] (setting [4]); in the assay with GP2D cells (setting [5])) was 100 to 1000 nM throughout. Regarding `C#Cc1c(F)ccc2cc(O)cc(-c3ncc4c(N5CCCCCN5)nc(OCC5(CN6CCN(c7cc(F)c(F)c(F)c7)CC6)CC5)nc4c3F)c12` [Compound 130], the IC50 with GP2D cells (setting [7]) is 100 to 1000 nM. On to `C#Cc1c(F)ccc2cc(O)cc(-c3ncc4c(N5CCCCCN5)nc(OCC5CN(c6nccn6C)C5)nc4c3F)c12` [Compound 138], for which the IC50 in the assay on GP2D cells (setting [5]) lay in the range of 100 to 1000 nM. Turning to `C#Cc1c(F)ccc2cc(O)cc(-c3ncc4c(N5CCCCCN5)nc(OCC5(C)C(C)CCN5CC=C)nc4c3F)c12` (stereo not drawn) [Compound 148], the 50% inhibitory concentration (IC50) with GP2D cells (setting [5]) was below 100 nM.
